Source: US20110118276A1, “METHODS OF TREATING ATHEROSCLEROSIS” (priority 2008, published 2011)
Entries after “also recorded” stand apart in the source; their conditions may differ.

Key:
Format in all cases: cell-based, human
IL-8 = IL-8 secretion by foam cells, ELISA; conditions: for block of adenosine-induced IL-8 increase: antagonist 100 nM
Protocol: (§1) U937 cells were induced to differentiate into macrophages by treatment with phorbol myristate acetate (PMA, 40 nM) for 72 h. Before use oxLDL was dialyzed against 1 L of 0.15 M sodium chloride and 0.3 mM EDTA (pH 7.4) for 12 h at 4° C., then against RPMI 1640 medium (two changes, 1 L/each change) for 24 h. All dialyses were carried out with Pierce Slide-A-Lyzer cassettes (10,000 molecular weight cut-off). After dialysis, lipoproteins were sterilized by passing them through a 0.45 μm (pore-size) filter, then added (50-100 μg/mL, Intracel, Frederick, Md.) to PMA-treated U937 cells and incubated in serum-free RPMI 1640 for 48 h.
(§2) The levels of VEGF and IL-8 protein secreted by the cells in the medium were determined by VEGF and IL-8 ELISA kits (R&D Systems) according to the manufacturer's instructions. The data were presented as mean±SD from three independent experiments.

HIF-1α protein = HIF-1α protein accumulation, western blot; conditions: foam cells; for antagonism of adenosine induced HIF-1α protein accumulation: antagonist 100 nM, adenosine 100 μM, hypoxia
Protocol: Hypoxic exposures were done in a modular incubator chamber and flushed with a gas mixture containing 1% O2, 5% CO2 and balance N2 (MiniGalaxy, RSBiotech, Irvine, Scotland).
U937 cells were induced to differentiate into macrophages by treatment with phorbol myristate acetate (PMA, 40 nM) for 72 h. […] All dialyses were carried out with Pierce Slide-A-Lyzer cassettes (10,000 molecular weight cut-off).
Whole cell lysates were prepared as described previously (27). […] In experiments aimed to detect HIF, western blot analyses were performed using antibody against HIF-1α (1:250 dilution) and […] (1:1000 dilution) in 5% non-fat dry milk in PBS/0.1°)/0 Tween-20 overnight at 4° C. The protein concentration was determined using BCA protein assay kit (Pierce, Rockford, Ill.). Tubulin (1:250) was used to ensure equal protein loading. Immunoreactivity was assessed and quantified by using a VersaDoc Imaging System (Bio-Rad).

VEGF = VEGF secretion by foam cells, ELISA; conditions: adenosine 100 μM, 24 h, hypoxic; for effect on adenosine-induced VEGF increase: antagonist 100 nM, U937 derived foam cells
Protocol: as §1, §2

PMA-treated U937 cells = assay: Foam cell formation, Oil red O stain analysis; conditions: adenosine 100 μM, oxLDL 50 μg/mL, 24 h
Protocol: as §1
Treatment of PMA-differentiated U937 cells with test agents was performed 2 h before addition of oxLDL. After exposition to oxLDL under hypoxia for 24 h, U937 cells were fixed in phosphate buffered saline-buffered 4% paraformaldehyde solution for 15 min and then air dried. Oil red O (in 60% isopropanol) staining was done for 15 min essentially as described previously by Kalayoglu and Byrne (Infect. Immun. 1998, 66, 5067-5072). Cells were viewed under a bright-field microscope in 100× fields using a Nikon's Eclipse E800 microscope. Foam cells were defined as macrophages in which cytoplasm was filled with Oil red O-stainable lipid droplets.

[1] = adenosine 100 μM, U937 derived foam cells, hypoxic

Row | Structure (SMILES) | block of adenosine-induced IL-8 increase (IL-8; [1]) | antagonism of adenosine induced HIF-1α protein accumulation (HIF-1α protein) | effect on adenosine-induced VEGF increase (VEGF) | other results
1 | CCCn1c(=O)c2[nH]c(C3CCCC3)nc2n(CCC)c1=O [DPCPX, 1,3-dipropyl-8-cyclopentylxanthine] | not |  |  | 
2 | CCNC(=O)[C@H]1O[C@@H](n2cnc3c(Nc4ccc(OCC(=O)Nc5ccccc5)cc4)ncnc32)[C@H](O)[C@@H]1O [1-deoxy-1-[6-{4-[(phenylcarbamoyl)-methoxy]phenylamino}-9H-purin-9-yl]-N-ethyl-β-D-ribofuranuronamide] |  |  |  | induction of HIF-1α protein by adenosine receptor agonists (HIF-1α protein; CHA 10, 100 nM, CGS 21680 500, 1000 nM, A2B agonist 10, 100 nM, CI-IB-MECA 10, 100 nM): able to induce HIF-1α protein; IL-8 secretion (IL-8; A2B receptor agonist 1 μM): 142±8 % of IL-8 secretion; EC50 (IL-8; Homo sapiens, U-937, dose-response curve, U937 derived foam cells, hypoxic, read-out: EC50 for stimulation of IL-8 secretion): 58 ± 6 nM
3 | Nc1ncnc2c1ncn2[C@@H]1O[C@H](CO)[C@@H](O)[C@H]1O [adenosine] |  |  |  | increase of VEGF levels (VEGF; supernatant of U937 derived foam cells): 165±10%; increase of IL-8 levels (IL-8; adenosine 100 μM, supernatant of U937 derived foam cells, hypoxic): 158±10%; effect on oxLDL-induced foam cell formation (Oil red O) (PMA-treated U937 cells): increased
4 | CCCn1cc2c(nc(NC(=O)Nc3ccc(OC)cc3)n3nc(-c4ccco4)nc23)n1 [MRE-3008F20, 5-N-(4-methoxyphenyl-carbamoyl)amino-8-propyl-2-(2furyl)-pyrazolo-[4,3e]-1,2,4-triazolo[1,5-c]pyrimidine] | not | partially antagonized | strongly reduced | effect on oxLDL and adenosine induced foam cells formation (Oil red O) (PMA-treated U937 cells; antagonist 100 nM): blocked the foam cells formation; also recorded: inhibition of foam cell formation
5 | CCCn1c(=O)c2nc(-c3cc(OCC(=O)Nc4ccc5c(c4)OCO5)nn3C)[nH]c2n(CCC)c1=O [MRE-2029F20, N-1,3-benzodioxol-5-yl-2-{[5-(2,6-dioxo-1,3-dipropyl-2,3,6,9-tetrahydro-1H-purin-8-yl)-1-methyl-1H-pyrazol-3-yl]oxy}acetamide] | blocked | partially antagonized | strongly reduced | block of the effect of the A2B receptor agonist (1 μM) on IL-8 secretion (IL-8; U937 derived foam cells): completely blocked; effect on oxLDL and adenosine induced foam cells formation (Oil red O) (PMA-treated U937 cells; antagonist 100 nM): blocked the foam cells formation; also recorded: inhibition of foam cell formation
6 | Nc1nc2c(cnn2CCc2ccccc2)c2nc(-c3ccco3)nn12 [SCH 58261] | not | partially antagonized | inhibited to lesser extent | 
7 | COc1ccccc1NC(=O)Nc1nc(-c2cccnc2)nc2ccccc12 [VUF 5574] |  |  |  | effect on oxLDL and adenosine induced foam cells formation (Oil red O) (PMA-treated U937 cells; antagonist 10 nM): blocked the foam cells formation; also recorded: inhibition of foam cell formation
